US7026516B2 (priority 2000, dated 2006)
Read-outs that look alike come from different tables or passages of the source.

Legend:
[1] = biological target: T1, dopamine transporter (Macaca fascicularis, UniProt Q9GJT6); experiment: Inhibition of [3H]WIN 35,428 binding to the dopamine transporter in monkey caudate-putamen
T1 construct: Each caudate-putamen was homogenized and used separately for dopamine and serotonin transporter assays; from tissue; host or cells: caudate-putamen membranes of adult cynomolgus or rhesus monkey brain
T1 sequence (Q9GJT6 whole entry): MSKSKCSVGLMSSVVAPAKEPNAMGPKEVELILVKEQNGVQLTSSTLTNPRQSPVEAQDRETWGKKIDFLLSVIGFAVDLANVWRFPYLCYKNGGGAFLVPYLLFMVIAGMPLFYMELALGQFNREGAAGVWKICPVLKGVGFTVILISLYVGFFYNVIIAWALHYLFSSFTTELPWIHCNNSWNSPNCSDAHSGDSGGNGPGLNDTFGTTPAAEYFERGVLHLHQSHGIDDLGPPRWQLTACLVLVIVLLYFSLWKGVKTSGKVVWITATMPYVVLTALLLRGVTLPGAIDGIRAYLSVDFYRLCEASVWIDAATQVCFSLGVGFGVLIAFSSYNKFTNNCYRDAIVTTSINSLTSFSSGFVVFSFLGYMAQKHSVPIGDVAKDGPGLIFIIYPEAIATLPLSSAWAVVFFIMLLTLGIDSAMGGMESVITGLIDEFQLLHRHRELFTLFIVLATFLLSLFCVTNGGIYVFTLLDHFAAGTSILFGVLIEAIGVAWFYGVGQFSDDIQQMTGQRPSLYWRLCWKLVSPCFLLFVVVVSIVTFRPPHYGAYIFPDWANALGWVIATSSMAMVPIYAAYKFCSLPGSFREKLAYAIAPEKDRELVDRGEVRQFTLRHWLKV

[2] = biological target: T2, serotonin transporter (Macaca mulatta, UniProt Q9MYX0); experiment: biochemical; format: binding
T2 construct: Each caudate-putamen was homogenized and used separately for dopamine and serotonin transporter assays; from tissue; host or cells: caudate-putamen membranes of adult cynomolgus or rhesus monkey brain
T2 sequence (Q9MYX0 whole entry): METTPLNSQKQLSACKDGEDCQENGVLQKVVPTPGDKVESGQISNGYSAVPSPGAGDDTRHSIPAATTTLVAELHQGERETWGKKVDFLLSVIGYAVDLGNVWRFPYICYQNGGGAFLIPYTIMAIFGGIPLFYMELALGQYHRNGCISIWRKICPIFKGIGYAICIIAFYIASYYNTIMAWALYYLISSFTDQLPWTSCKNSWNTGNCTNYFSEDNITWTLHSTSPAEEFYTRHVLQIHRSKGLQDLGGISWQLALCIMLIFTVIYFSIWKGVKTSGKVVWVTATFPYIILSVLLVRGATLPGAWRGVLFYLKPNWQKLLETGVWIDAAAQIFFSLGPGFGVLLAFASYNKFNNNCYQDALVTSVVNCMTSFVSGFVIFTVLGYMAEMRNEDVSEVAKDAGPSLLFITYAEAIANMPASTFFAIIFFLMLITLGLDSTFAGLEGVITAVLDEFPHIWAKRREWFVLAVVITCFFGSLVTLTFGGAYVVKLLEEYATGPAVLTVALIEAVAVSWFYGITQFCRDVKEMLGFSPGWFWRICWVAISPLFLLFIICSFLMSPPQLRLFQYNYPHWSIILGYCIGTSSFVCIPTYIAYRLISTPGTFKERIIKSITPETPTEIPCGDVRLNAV
Experimental: The affinities and transporter selectivities of the drugs were assessed in brain tissue of adult cynomolgus or rhesus monkey (Macaca fasicularis or Macaca Mulatta). Caudate-putamen was the source of the dopamine and serotonin transporters. The dopamine transporter affinity was measured with [3H]WIN 35,428 ([3H]CFT), the serotonin transporter was measured with [3H]citalopram and the norepinephrine transporter was measured with [3H]nisoxetine. Affinities of selected compounds were also measured at the human dopamine transporter in HEK-293 cells expressing the human dopamine transporter (hDAT).
Brain tissue was harvested from adult male and female cynomolgus (Macaca fasicularis) or rhesus (Macaca Mulatta) monkeys euthanized in the course of other research or after spontaneous death. Tissue was stored in the brain bank at the New England Regional Primate Research Center at −85° C. The caudate-putamen (approximately 1.5 g) was dissected from coronal sections of brain. Each caudate-putamen was homogenized and used separately for dopamine and serotonin transporter assays. Prior to homogenization, the thalamus from two brains was pooled and membranes were prepared as described previously for norepinephrine transporter assays (Madras et al., Synapse, 22:231–232, 1998; Madras et al., Synapse, 24:340–348, 1996). Briefly, the tissue was homogenized in 10 volumes (w/v) of ice-cold Tris.HCl buffer (50 mM, pH 7.4 at 0–4° C.) and centrifuged at 38,700×g for 20 min in the cold. The resulting pellet was resuspended in 40 volumes of buffer, and the entire wash procedure was repeated twice. The membrane suspension (25 mg original wet weight of tissue/ml) was diluted to 12 mg/ml in buffer just prior to assay and dispersed with a Brinkmanm polytron (setting #5) for 15 sec. […] All experiments were conducted in triplicate and each experiment was repeated in 2–4 individual tissue preparations.
The serotonin transporter was assayed in caudate-putamen membranes using similar assay conditions as for the dopamine transporter. […] The affinity of drugs for the serotonin transporter labeled by [^3H]citalopram (spec. act.: approximately 85 Ci/mmol, NEN) was determined in experiments by incubating tissue with a fixed concentration of [^3H]citalopram and a range of concentrations of drug. Assays were conducted in Tris-HCl buffer containing NaCl (100 mM) and the following constituents: [^3 H]citalopram (1 nM, 0.2 ml), test drug (1 pM–100 TM, 0.2 ml) and tissue (0.2 ml, 3 mg/ml original wet tissue weight). The 2 h incubation (0–4° C.) was initiated by addition of membranes and terminated by rapid filtration over Whatman GF/B glass fiber filters pre-soaked 1 hour in 0.1% polyethyleneimine. The filters were washed three times with 5 ml Tris.HCl buffer (50 mM), and the remaining steps were carried out as described above. Total binding was defined as [^3H]citalopram bound in the presence of ineffective concentrations of unlabeled citalopram (1 pM) or the test compounds. Non-specific binding was defined as [^3H]citalopram bound in the presence of an excess (10 TM) of fluoxetine. Specific binding was the difference between the two values. Cpm were converted to dpm following determination of counting efficiency (>45%) of each vial by external standardization.
Data were analyzed by the EBDA and LIGAND computer software programs (ElsevierBiosoft, U.K.) Final estimates of IC50 and nH values were computed by the EBDA program. Baseline values for the individual drugs were established by computer analysis, using the baseline drugs as a guide. The LIGAND program provided final parameter estimates for the affinity of the radioligand (Kd) by iterative non-linear curve-fitting and evaluation of one- or two-component binding models. LIGAND was used to measure the affinity of the radioligands at the dopamine and serotonin transporter. Graphs (not shown) were produced by the computer software program PRISM, using a one- or two-site competition analysis curve.

[3] = Table 1, [3H]WIN 35,428, monkey caudate-putamen, mean of 3 or more experiments, read-out: DAT IC50
[4] = Table 2, affinity at the dopamine transporter, read-out: DAT IC50
[5] = Table 2, ratio of SERT and DAT IC50 values
[6] = Table 2, affinity at the serotonin transporter, read-out: SERT IC50
[7] = read-out: IC50, binding potency at the DAT
[8] = Table 1, [3H]citalopram, monkey caudate-putamen, mean of 3 or more experiments, read-out: SERT IC50

| SMILES | IC50 [1, 4] [nM] | DAT/SERT RATIO [1, 5] | IC50 [2, 6] [nM] | IC50 [2, 8] [nM] | other results |
| --- | --- | --- | --- | --- | --- |
| N#CC(c1ccc(Cl)c(Cl)c1)C1CCCC1 (stereo not drawn) [Compound 10, α-cyclopentyl-3,4-dichlorobenzylcyanide] | 128 | 78 | – | – | IC50 [1, 3]: 128 nM |
| CO[C@@H]1C[C@H](c2ccc(Cl)c(Cl)c2)c2ccccc21 (relative stereo) [Compound 0-1617, Cis-1-Methoxy-3-(3,4-dichlorophenyl)indans] | 130 ± 49.7 | >32 | > 4100 | – | – |
| COC(=O)C(c1ccccc1)C1CCCCN1 (centres unmarked) [Methylphenidate, reference compound] | – | – | – | – | DAT/SERT RATIO [1]: 5,800; IC50 [1]: 17.2 ± 2.04 nM; IC50 [2]: > 100000 nM |
| COC(=O)C(c1ccc(Cl)c(Cl)c1)C1CCCCO1 (centres unmarked) [Compound 0-1730, 2-(3,4-Dichlorophenyl)tetrahydropyran-2-yl acetic acid methyl esters] | – | – | 2180 | – | – |
| COC(=O)C(c1ccc(Cl)c(Cl)c1)C1CCCCO1 (centres unmarked) [Compound 0-1731, 2-(3,4-Dichlorophenyl)tetrahydropyran-2-yl acetic acid methyl esters] | 286 ± 10.5 | – | 7800 | – | – |
| COC(=O)C(c1ccc2ccccc2c1)C1CCCCO1 (centres unmarked) [Naphthyl mixture, (2-Naphthyl)-(tetrahydropyran-2-yl) acetic acid methyl esters] | 300 | 16.7 | 5000 | 5000 | IC50 [1, 3]: 300 nM; IC50 ([1]; binding to the DAT, read-out: DAT IC50): 300 nM; IC50 [1, 7]: 300 nM; IC50 ([2]; binding to the SERT, read-out: SERT IC50): 5000 nM |
| COC(=O)[C@@H](c1ccc(Cl)c(Cl)c1)[C@H]1CCCCO1 [Compound O-1793, 2S-(3,4-Dichlorophenyl)tetrahydropyran-2′R-yl acetic acid methyl ester] | – | – | > 10000 | > 10000 | – |
| N#CC(c1ccc(Cl)c(Cl)c1)C1CCCCC1 (stereo not drawn) [Compound 8, α-cyclohexyl-3,4-dichlorobenzylcyanide] | 127 | 63 | 8000 | 8000 | IC50 [1, 7]: 127 to 146 nM; IC50 ([2]; read-out: IC50, binding potency at the SERT): 8000 to 12000 nM |
| COC(=O)[C@H](c1ccc(Cl)c(Cl)c1)[C@H]1CCCCO1 [Compound O-1783] | – | – | > 10000 | > 10000 | IC50 [1]: 17 ± 1.3 nM |
| COC(=O)[C@@H](c1ccc(Cl)c(Cl)c1)[C@@H]1CCCCO1 [Compound O-1794, 2S-(3,4-Dichlorophenyl)tetrahydropyran-2′S-yl acetic acid methyl ester] | – | – | – | 1660 | IC50 [1]: 33.9 ± 8.6 nM |
| CO[C@@H]1C[C@@H](c2ccc3ccccc3c2)c2ccccc21 (relative stereo) [Compound 0-1925, Trans-1-Methoxy-3-(2-naphthyl)indans] | 213 ± 27 | 0.6 | 136 ± 4.5 | – | – |
| CO[C@@H]1C[C@@H](c2ccc(Cl)c(Cl)c2)c2ccccc21 (relative stereo) [Compound 0-1630, Trans-1-Methoxy-3-(3,4-dichlorophenyl)indans] | 60 ± 23 | 6 | 334 ± 100 | – | – |
| O=C(O)[C@H](c1ccc(Cl)c(Cl)c1)C1CCCCO1 (some centres unmarked) | – | – | – | – | melting point: 124.1 to 125.1 °C |
| CO[C@@H]1C[C@H](c2ccc3ccccc3c2)c2ccccc21 (relative stereo) [Compound 0-1833, Cis-3-(2-Naphthyl)-0-methylindanol] | 189 ± 12 | 2 | 422 ± 38 | – | – |
| O=C(O)[C@H](c1ccc(Cl)c(Cl)c1)[C@H]1CCCCO1 | – | – | – | – | melting point: 139.1 to 140.1 °C |
| COC(=O)[C@H](c1ccc(Cl)c(Cl)c1)[C@@H]1CCCCO1 [Compound O-1792, 2R-(3,4-Dichlorophenyl)tetrahydropyran-2′S-yl acetic acid methyl ester] | – | – | > 10000 | > 10000 | – |
| O=C(O)C(c1ccc(Cl)c(Cl)c1)C1CCCCO1 (centres unmarked) | – | – | – | – | melting point: 138.9 to 139.9 °C |
